Measured values taken from ChEMBL document CHEMBL5724914, “Linking interpersonal differences in gut microbiota composition and drug biotransformation activity” (2024).

Tests used:
[1] = (§1) The drug is tested on Z-013 corresponding to rabbit gut metagenome with ENA study accession number: PRJEB37062 and ENA sample accession number: ERS12561813 for biotransformation under anaerobic condition. The drug concentrations were measured over 9 timepoints collected between 0 and 24 hours of incubation by liquid-chromatography-coupled mass spectrometry (LC–MS); details: 2 µM
[2] = as §1, with “Z-010” for “Z-013”, “to” for “to rabbit gut”, “ERS12561810” for “ERS12561813”; details: 2 µM
[3] = as §1, with “Z-004” for “Z-013”, “to” for “to rabbit gut”, “ERS12561804” for “ERS12561813”; details: 2 µM
[4] = as §1, with “WLS-220” for “Z-013”, “human” for “rabbit”, “ERS12561769” for “ERS12561813”; details: 2 µM
[5] = as §1, with “WLS-170” for “Z-013”, “human” for “rabbit”, “ERS12561762” for “ERS12561813”; details: 2 µM
[6] = as §1, with “WLS-069” for “Z-013”, “human” for “rabbit”, “ERS12561748” for “ERS12561813”; details: 2 µM
[7] = as §1, with “WLS-010” for “Z-013”, “human” for “rabbit”, “ERS12561743” for “ERS12561813”; details: 2 µM
[8] = as §1, with “WLS-006” for “Z-013”, “human” for “rabbit”, “ERS12561741” for “ERS12561813”; details: 2 µM
[9] = human gut metagenome, 24 h, 2 µM
[10] = human gut metagenome, 24 h, 2 µM; remark: listed apart in the source
[11] = human gut metagenome, 24 h, 2 µM; remark: listed apart in the source
[12] = human gut metagenome, 24 h, 2 µM; remark: listed apart in the source
[13] = human gut metagenome, 24 h, 2 µM; remark: listed apart in the source
[14] = human gut metagenome, 24 h, 2 µM; remark: listed apart in the source
[15] = human gut metagenome, 24 h, 2 µM; remark: listed apart in the source
[16] = human gut metagenome, 24 h, 2 µM; remark: listed apart in the source
[17] = human gut metagenome, 24 h, 2 µM; remark: listed apart in the source
[18] = human gut metagenome, 24 h, 2 µM; remark: listed apart in the source
[19] = human gut metagenome, 24 h, 2 µM; remark: listed apart in the source
[20] = human gut metagenome, 24 h, 2 µM; remark: listed apart in the source
Also: call rule not given here.

Row | Structure (SMILES) | Bacterial Biotransformation [1] | Bacterial Biotransformation [2] | Bacterial Biotransformation [3] | Bacterial Biotransformation [4] | Bacterial Biotransformation [5] | Bacterial Biotransformation [6] | Bacterial Biotransformation [7] | Bacterial Biotransformation [8] | Bacterial Biotransformation [9] | Bacterial Biotransformation [10] | Bacterial Biotransformation [11] | Bacterial Biotransformation [12] | Bacterial Biotransformation [13] | Bacterial Biotransformation [14] | Bacterial Biotransformation [15] | Bacterial Biotransformation [16] | Bacterial Biotransformation [17] | Bacterial Biotransformation [18] | Bacterial Biotransformation [19] | Bacterial Biotransformation [20]
1 | CCC1(c2ccc(N)cc2)CCC(=O)NC1=O (stereo not given) [AMINOGLUTETHIMIDE] | Compound NOT metabolized | Compound NOT metabolized | Compound NOT metabolized | Compound NOT metabolized | Compound NOT metabolized | Compound NOT metabolized | Compound NOT metabolized | Compound NOT metabolized | Compound NOT metabolized | Compound NOT metabolized | Compound NOT metabolized | Compound NOT metabolized | Compound NOT metabolized | Compound NOT metabolized | Compound NOT metabolized | Compound NOT metabolized | Compound NOT metabolized | Compound NOT metabolized | Compound NOT metabolized | Compound NOT metabolized
2 | COc1ccccc1N1CCN(CC(O)COc2cccc3ccccc23)CC1 (stereo not given) [NAFTOPIDIL] | Compound NOT metabolized | Compound NOT metabolized | Compound NOT metabolized | Compound NOT metabolized | Compound NOT metabolized | Compound NOT metabolized | Compound NOT metabolized | Compound NOT metabolized | Compound NOT metabolized | Compound NOT metabolized | Compound NOT metabolized | Compound NOT metabolized | Compound NOT metabolized | Compound NOT metabolized | Compound NOT metabolized | Compound NOT metabolized | Compound NOT metabolized | Compound NOT metabolized | Compound NOT metabolized | Compound NOT metabolized
3 | CC(C)NCC(O)COc1ccc(COCCOC(C)C)cc1.CC(C)NCC(O)COc1ccc(COCCOC(C)C)cc1.O=C(O)/C=C/C(=O)O (stereo not given) [BISOPROLOL FUMARATE] | Compound NOT metabolized | Compound NOT metabolized | Compound NOT metabolized | Compound metabolized | Compound metabolized | Compound NOT metabolized | Compound NOT metabolized | Compound metabolized | Compound metabolized | Compound metabolized | Compound metabolized | Compound metabolized | Compound NOT metabolized | Compound NOT metabolized | Compound metabolized | Compound NOT metabolized | Compound metabolized | Compound NOT metabolized | Compound metabolized | Compound NOT metabolized
4 | NC(CO)(CO)CO.O=C(c1ccccc1)c1ccc2n1CCC2C(=O)O (stereo not given) [KETOROLAC TROMETHAMINE] | Compound NOT metabolized | Compound metabolized | Compound NOT metabolized | Compound metabolized | Compound metabolized | Compound metabolized | Compound metabolized | Compound metabolized | Compound metabolized | Compound metabolized | Compound metabolized | Compound metabolized | Compound metabolized | Compound NOT metabolized | Compound metabolized | Compound metabolized | Compound metabolized | Compound metabolized | Compound metabolized | Compound metabolized
5 | COc1cc2c(c(OC)c1OC)-c1ccc(OC)c(=O)cc1[C@@H](NC(C)=O)CC2 [COLCHICINE] | Compound NOT metabolized | Compound metabolized | Compound NOT metabolized | Compound metabolized | Compound metabolized | Compound metabolized | Compound metabolized | Compound metabolized | Compound NOT metabolized | Compound NOT metabolized | Compound NOT metabolized | Compound metabolized | Compound metabolized | Compound NOT metabolized | Compound metabolized | Compound metabolized | Compound metabolized | Compound metabolized | Compound metabolized | Compound NOT metabolized
6 | C=CCc1ccccc1OCC(O)CNC(C)C (stereo not given) [ALPRENOLOL] | Compound NOT metabolized | Compound NOT metabolized | Compound NOT metabolized | Compound metabolized | Compound metabolized | Compound NOT metabolized | Compound NOT metabolized | Compound NOT metabolized | Compound NOT metabolized | Compound NOT metabolized | Compound metabolized | Compound NOT metabolized | Compound NOT metabolized | Compound NOT metabolized | Compound NOT metabolized | Compound metabolized | Compound metabolized | Compound NOT metabolized | Compound metabolized | Compound NOT metabolized
7 | CCOC(=O)[C@H](CCc1ccccc1)N[C@H]1CCc2ccccc2N(CC(=O)O)C1=O [BENAZEPRIL] | Compound NOT metabolized | Compound metabolized | Compound metabolized | Compound metabolized | Compound metabolized | Compound metabolized | Compound metabolized | Compound metabolized | Compound metabolized | Compound metabolized | Compound metabolized | Compound metabolized | Compound metabolized | Compound NOT metabolized | Compound metabolized | Compound metabolized | Compound metabolized | Compound metabolized | Compound metabolized | Compound metabolized
8 | CN1C(=O)CC(C)(c2ccccc2)C1=O (stereo not given) [METHSUXIMIDE] | Compound NOT metabolized | Compound NOT metabolized | Compound NOT metabolized | Compound NOT metabolized | Compound metabolized | Compound NOT metabolized | Compound NOT metabolized | Compound NOT metabolized | Compound NOT metabolized | Compound NOT metabolized | Compound NOT metabolized | Compound NOT metabolized | Compound metabolized | Compound NOT metabolized | Compound NOT metabolized | Compound metabolized | Compound NOT metabolized | Compound NOT metabolized | Compound metabolized | Compound NOT metabolized
9 | CN1CCN(C2=Nc3cc(Cl)ccc3Nc3ccccc32)CC1 [CLOZAPINE] | Compound NOT metabolized | Compound NOT metabolized | Compound NOT metabolized | Compound metabolized | Compound metabolized | Compound NOT metabolized | Compound NOT metabolized | Compound NOT metabolized | Compound NOT metabolized | Compound NOT metabolized | Compound NOT metabolized | Compound metabolized | Compound NOT metabolized | Compound NOT metabolized | Compound metabolized | Compound metabolized | Compound metabolized | Compound NOT metabolized | Compound metabolized | Compound metabolized
